Data published in patent US20140186329A1, “POLYPHENOL ANALOGS TO TREAT ISCHEMIA” (priority 2011, published 2014).
Like-named read-outs stand apart in the source and are kept apart here.

Tests used:
HT22 cells = assay: In vitro ischemia assay (HT22 cell IAA assay, MTT); type: cell-based, mouse; settings: for Emax / percent protection from IAA-induced cell death at 0.1 µM: HT-22; for Emax: HT22 Cell IAA assay, read-out: Max Protection; for increase of survival over the neuroprotective concentration range / neuroprotective concentration range: 20 μM IAA 2 hr, MTT at 24 hours; for percent protection from IAA-induced cell death at 0.1 µM: compound 100 nM
Procedure, shortened: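 Mouse HT22 hippocampal cells in DMEM/7.5% DFCS exposed 2 hr to 20 μM iodoacetic acid with or without derivative, then 20 hr in IAA-free medium still containing derivative. Viability by MTT (2.5 μg/ml, 4 hr, 37 °C), absorbance at 570 nm.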

[1] = TEAC, ABTS decolorization assay; settings: relative to Trolox
Procedure, shortened: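 Compound in ethanol added to persulfate-generated ABTS radical cation (OD ~0.7 at 734 nm); absorbance decrease followed at 734 nm for 4 min. TEAC is the slope of percent absorbance inhibition versus concentration divided by the corresponding Trolox slope.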

[2] = Mus musculus, HT-22, HT22 cells, 20 μM IAA for 2 hr, viability after 24 hr by MTT, read-out: EC50 in vitro ischemia
[3] = Mus musculus, HT-22, HT22 cells, 20 μM IAA, read-out: HT22 Cell IAA assay EC50
[4] = HT22 cells, 20 μM IAA, read-out: HT22 Cell IAA assay EC50

In the case of `Oc1ccc(-c2cc(OC3CCCC3)c3ccccc3n2)cc1O` [CMS-121, 4-cyclopentyloxy-2-(3,4-dihydroxyphenyl) quinoline], the EC50 (HT22 cells; [2]) is reported as 7 nM, the Emax (HT22 cells; Mus musculus) is reported as 86% and the “fold improvement of neuroprotective activity/potency relative to Fisetin” value (HT22 cells; in vitro ischemia, HT22/IAA) is reported as > 400 fold. For the same compound, the TEAC [1] was 0.40.
For `O=c1cc(-c2ccccc2)oc2cc(O)c(O)c(O)c12` [Baicalein, 5,6,7-trihydroxyflavone, reference compound], the “HT22 Cell IAA assay (maximal % protection)” value (HT22 cells; 20 μM IAA) was 85%, the “increase of survival over the neuroprotective concentration range” value (HT22 cells; HT22 cells) was “greater than 80%” and the neuroprotective concentration range (HT22 cells; HT22 cells) was 2.5 to 10 µM. The EC50 (HT22 cells; [3]) was 1500 nM.
With `O=c1c(O)c(-c2ccc(O)c(O)c2)oc2cc(O)ccc12` [Fisetin, 3,7,3′,4′-Tetrahydroxyflavone, reference compound] the “HT22 Cell IAA assay (maximal % protection)” value (HT22 cells; 20 μM IAA) was 90%, the “increase of survival over the neuroprotective concentration range” value (HT22 cells; HT22 cells) was “greater than 85%” and the neuroprotective concentration range (HT22 cells; HT22 cells) was 5 to 25 µM. For the same compound, the EC50 (HT22 cells; [2]) was 3000 nM, the EC50 (HT22 cells; [3]) was 3000 nM and the TEAC [1] was 3.
In the case of `COc1cc(-c2oc3cc(C)c(C)cc3c(=O)c2O)ccc1O` [CMS-069, 3-hydroxy-2-(4-hydroxy-3-methoxyphenyl)-6,7-dimethyl-4H-chromen-4-one], the EC50 (HT22 cells; [4]) is reported as 36 nM, the EC50 (HT22 cells; [2]) is reported as 40 nM and the EC50 (HT22 cells; [3]) is reported as < 40 nM. It also gave a percent protection from IAA-induced cell death at 0.1 µM (HT22 cells; Mus musculus, 20 μM IAA) of 67% and a TEAC [1] of 1.89.
Compound `CN(C)c1ccc(-c2oc3c(ccc4ccccc43)c(=O)c2O)cc1` [CMS-118, 2-(4-(dimethylamino)phenyl)-3-hydroxy-4H-benzo[h]chromen-4-one] has an EC50 (HT22 cells; [2]) of 40 nM, an Emax (HT22 cells; Mus musculus) of 82% and a TEAC [1] of 0.93.
For `O=c1c(O)c(-c2ccc(N3CCCC3)c(O)c2)oc2c1ccc1ccccc12` [CMS-140, 3-hydroxy-2-(3-hydroxy-4-(pyrrolidin-1-yl)phenyl)-4H-benzo[h]chromen-4-one], the EC50 (HT22 cells; [2]) was 5 nM, the Emax (HT22 cells; Mus musculus) was 89% and the “fold improvement of neuroprotective activity/potency relative to Fisetin” value (HT22 cells; in vitro ischemia, HT22/IAA) was “up to 600 fold”. For the same compound, the TEAC [1] was 2.1.
`Cc1cc2oc(-c3ccc(N(C)C)cc3)c(O)c(=O)c2cc1C` [CMS-117, 2-(4-(dimethylamino)phenyl)-3-hydroxy-6,7-dimethyl-4H-chromen-4-one] showed an EC50 (HT22 cells; [2]) of 20 nM, an Emax (HT22 cells; Mus musculus) of 81% and a TEAC [1] of 3.
Compound `Cc1cc(O)c(C(=O)/C=C/c2ccc(O)c(O)c2)cc1C` [CMS-011, (E)-3-(3,4-dihydroxyphenyl)-1-(2-hydroxy-4,5-dimethylphenyl)prop-2-en-1-one] has an EC50 (HT22 cells; [4]) of 53 nM, an EC50 (HT22 cells; [2]) of 50 nM and an EC50 (HT22 cells; [3]) of 50 nM. For the same compound, the percent protection from IAA-induced cell death at 0.1 µM (HT22 cells; Mus musculus, 20 μM IAA) was 62% and the TEAC [1] was 2.7.
With `O=c1c(O)c(-c2ccc(O)c(O)c2)oc2ccccc12` [CMS-04P, reference compound] the EC50 (HT22 cells; [2]) was 500 nM, the EC50 (HT22 cells; [3]) was 500 nM and the “fold improvement of neuroprotective activity/potency relative to Fisetin” value (HT22 cells; in vitro ischemia, HT22/IAA) was ~6 fold. For the same compound, the TEAC [1] was 2.
In the case of `O=C(/C=C/c1ccc(O)c(O)c1)O[C@@H]1C[C@](O)(C(=O)O)C[C@@H](O)[C@H]1O` [Chlorogenic Acid, 1,3,4,5-tetrahydroxy-cyclohexanecarboxylic acid 3-(3,4-dihydroxycinnamate)], the “HT22 Cell IAA assay (maximal % protection)” value (HT22 cells; 20 μM IAA) is reported as 45% and the EC50 (HT22 cells; [3]) is reported as 5000 nM.
In the case of `O=C(/C=C/c1ccc(O)c(O)c1)c1ccc2ccccc2c1O` [CMS-034, (E)-3-(3,4-dihydroxyphenyl)-1-(1-hydroxynaphthalen-2-yl)prop-2-en-1-one], the EC50 (HT22 cells; [4]) is reported as 79 nM, the EC50 (HT22 cells; [2]) is reported as 80 nM and the EC50 (HT22 cells; [3]) is reported as ≤ 100 nM. It also gave a percent protection from IAA-induced cell death at 0.1 µM (HT22 cells; Mus musculus, 20 μM IAA) of 63%, an Emax (HT22 cells; Mus musculus) of 81% and a TEAC [1] of 2.8.
For `CCOc1cc(-c2ccc(O)c(O)c2)nc2ccccc12` [CMS-023, 4-ethoxy-2-(3,4-dihydroxyphenyl) quinoline], the EC50 (HT22 cells; [2]) was 20 nM, the EC50 (HT22 cells; [3]) was 21 nM and the percent protection from IAA-induced cell death at 0.1 µM (HT22 cells; Mus musculus, 20 μM IAA) was 72%. For the same compound, the “fold improvement of neuroprotective activity relative to CMS-007” value (HT22 cells; in vitro ischemia, HT22/IAA) was ~2 fold, the “fold improvement of neuroprotective activity/potency relative to Fisetin” value (HT22 cells; in vitro ischemia, HT22/IAA) was ~140 fold and the TEAC [1] was 0.90.
`CC(C)Oc1cc(-c2ccc(O)c(O)c2)nc2ccccc12` [CMS-024, 4-isopropoxy-2-(3,4-dihydroxyphenyl) quinoline] showed an EC50 (HT22 cells; [2]) of 20 nM, an EC50 (HT22 cells; [3]) of 21 nM and a percent protection from IAA-induced cell death at 0.1 µM (HT22 cells; Mus musculus, 20 μM IAA) of 72%. The “fold improvement of neuroprotective activity relative to CMS-007” value (HT22 cells; in vitro ischemia, HT22/IAA) was ~2 fold and the TEAC [1] was 0.18.
In the case of `COc1ccc(/C=C/C(=O)c2cc(C)c(C)cc2O)cc1OCc1ccccc1` [CMS-086, (E)-3-(3-(benzyloxy)-4-methoxyphenyl)-1-(2-hydroxy-4,5-dimethylphenyl)prop-2-en-1-one], the “EC50 in vitro ischemia (μM)” value (HT22 cells; HT22 cells, 20 μM IAA for 2 hr, viability after 24 hr by MTT) is reported as “no” and the TEAC [1] is reported as 0.12.
For `O=c1c(O)c(-c2ccc(O)c(O)c2)oc2c1ccc1ccccc12` [CMS-040, 2-(3,4-dihydroxyphenyl)-3-hydroxy-4H-benzo[h]chromen-4-one], the EC50 (HT22 cells; [2]) was 90 nM, the percent protection from IAA-induced cell death at 0.1 µM (HT22 cells; Mus musculus, 20 μM IAA) was 67% and the “fold enhancement of neuroprotective activity relative to CMS-04P” value (HT22 cells; in vitro ischemia, HT22/IAA) was ~5.5 fold. The TEAC [1] was 2.4.
With `Cc1cc2oc(-c3ccc(N4CCCC4)cc3)c(O)c(=O)c2cc1C` [CMS-122, 3-hydroxy-6,7-dimethyl-2-(4-(pyrrolidin-1-yl)phenyl)-4H-chromen-4-one] the EC50 (HT22 cells; [2]) was 90 nM and the TEAC [1] was 2.4.
For `COc1cc(-c2ccc(O)c(O)c2)nc2ccccc12` [CMS-007, 4-methoxy-2-(3,4-dihydroxyphenyl) quinoline], the EC50 (HT22 cells; [2]) was 40 nM, the percent protection from IAA-induced cell death at 0.1 µM (HT22 cells; Mus musculus, 20 μM IAA) was 71% and the “fold improvement of neuroprotective activity/potency relative to Fisetin” value (HT22 cells; in vitro ischemia, HT22/IAA) was ~75 fold. It also gave a TEAC [1] of 0.36.
In the case of `COc1cc(-c2oc3cc(C)c(C)cc3c(=O)c2O)ccc1OCc1ccccc1` [CMS-059, 2-(4-(benzyloxy)-3-methoxyphenyl)-3-hydroxy-6,7-dimethyl-4H-chromen-4-one], the EC50 (HT22 cells; [2]) is reported as 170 nM, the EC50 (HT22 cells; [3]) is reported as 167 nM and the percent protection from IAA-induced cell death at 0.1 µM (HT22 cells; Mus musculus, 20 μM IAA) is reported as 49%. The TEAC [1] was 0.27.
